In patent US11064704B2, “Natural product formulations with improved residual insect repellent/deterrent activity” (University of Mississippi, priority 2016, dated 2021):

What was measured:
[1] = system: Anopheles quadrimaculatus mosquitoes; assay: in vitro A&K (Ali and Khan) repellent bioassay; format: in vivo; settings: compared with DEET
From the text: The A&K (Ali and Khan) bioassay system is based on the concept that the mosquitoes are attracted to warm temperatures, and this system uses warm temperature to serve as stimulus for landing and feeding. The details of the A&K bioassay systems are given in Ali et al. (2017).
In summary, this in vitro system consisted of a 30×30×30 cm collapsible aluminum cage (Model 1450B, BioQuip Products, 2321 Gladwick Street, Rancho Dominguez, Calif. 90220, USA) with metal screens. On one panel of the cage, metal screen was replaced with a clear acrylic transparent sheet. […] The blood box had three sides covered with acrylic sheet while the front side was open to insert the feeding device. […] The sliding door served to contain the females inside the cage when the feeding device was pulled out for loading the treatment. This door was slid open when the feeding device was pushed in during the bioassay to expose the females to the treatment.
The feeding device had one 3×4 cm rectangular reservoir that contained the feeding solution. The feeding device was connected to the water circulator. The reservoir of the feeding device with feeding solution was covered with a chemical treated collagen sheet. To observe the landing and feeding of female mosquitoes, feeding solution in the reservoir was heated to match the human body temperature using a water circulator which was set at 37° C. The feeding solution had 3-4° C. higher temperature than the solid platform, and this increased temperature of the feeding solution became a better source of attraction and preference for the mosquitoes than the other parts of the feeding device.
The rectangular reservoir of the feeding device was filled with the CPDA 1+ATP solution having a few drops of green fluorescent traceable water-soluble dye to serve as a feeding source. A test was started when the 3×4 cm marked areas of collagen were treated with the desired chemical in a volume of 50 μL/[…]. The treated collagen sheet was then secured on the reservoir using a thin layer of high vacuum grease (Dow Corning Corporation, Midland, Mich. 48686). The feeding device was then pushed into the blood box and the sliding door was opened to expose females to the treatment.
Stock solutions were made in ethanol. All the dilutions were made in EtOH and applied in a volume of 50 μL covering […] of the collagen sheet. Minimum effective dosage (MED) values in this in vitro bioassay were determined using a method described by Katritzky et al. (2010).
The cage contained 200±10, 8-18 day old female mosquitoes. The number of mosquitoes landing and biting were recorded visually for 1 minute. Three or four cages were used at a time, and one treatment was evaluated in a single cage. The minimum dose at which 2 or less mosquitoes (i.e. less than or equal to 1% of 200 females in the cage) started feeding in 1 minute was the minimum effective dose (“MED”). Continuous exposure of the mosquitoes in the cage can result in reduced landing and biting, therefore, 3-4 cages were used and only one replication was completed for each chemical in a single cage. To ensure accuracy of the treatment, rectangular areas of (3×4 cm (12 cm^2) or 7.5×4 cm (30 cm^2) were marked on the collagen that matched the measurement of the rectangular liquid reservoirs. Treatments were applied in a volume of 50 μL (12 cm^2 area) or 107 μL (30 cm^2 area). Treated collagen sheets were secured on a feeding reservoir containing CPDA-1+ATP solution using a thin layer of grease (Dow Corning Corp, Midland, Mich.). The feeding device was pushed inside the blood box and the sliding door was […] to expose the females to the treatment.
To ensure the normal activity (≥10% landing), control treatment was repeated after every 5 replications, and the bioassay was stopped if the response was less than the control. The data is presented as MED values with the mean percentage biting (±SEM) in parenthesis. […]

[2] = system: Aedes aegypti females; settings: literature values; cited from earlier work

Compound	repellent activity [1]	MED values reported by Ali et al. (2012) and Katritzky et al. (2010) [2] [μg/cm^2]
CC1=CC[C@]2(C)CC[C@@H](C(C)C)[C@]2(O)CC1 [carotol]	comparable to DEET	
CCN(CC)C(=O)c1cccc(C)c1 [DEET, N,N-diethyl-meta-toluamide, reference compound]		9
